Results from PMC5594493, “Antiproliferative factor (APF) binds specifically to sites within the cytoskeleton-associated protein 4 (CKAP4) extracellular domain” (BMC Biochemistry, 2017).

Assays:
[1] = system: CKAP4; conditions: ref [17], [18]; cited from earlier work
Excerpt: (§1) The effects that APF has on cells are remarkable and unique among the reported ligands for CKAP4.

[2] = system: HeLa cells; conditions: in vitro; background statement, no reference given; read-out: IC50, growth inhibition; cited from earlier work
Excerpt: as §1

[3] = system: bladder carcinoma cells; conditions: in vitro; background statement, no reference given; read-out: IC50, growth inhibition; cited from earlier work
Excerpt: as §1

[4] = system: normal bladder epithelial cells; conditions: in vitro; background statement, no reference given; read-out: IC50, growth inhibition; cited from earlier work
Excerpt: as §1

[5] = system: cell proliferation; conditions: cited from earlier work
Experimental: Cells were treated with 20 nM APF or as-APF for 96 h and the rate of cell growth was measured using the XTT proliferation assay. […] The rate of growth of T24 cells was reduced by 47% with APF and by 60% with as-APF, relative to cells treated with vehicle alone; moreover, the difference in the antiproliferative effect of as-APF and APF was de ...

[6] = system: CKAP4; test: SPR binding to CKAP4 recombinant proteins (overall statements); conditions: comparison of as-APF, APF and control peptide
Experimental: All SPR experiments were performed on a Biacore X-100 instrument (GE Healthcare) with the chip surface at 25 °C using PBS containing 0.01% Tween-20 as running buffer. CKAP4 recombinant proteins were immobilized individually either by Ni^2+/nitrilotriacetic acid (NTA) chelation on Sensor Chip NTA or by amine-coupling on Sensor Chip CM5, on the Fc2 channel. For amine-coupling, the sensor surface on both flow cells was activated for 7 min with a 1:1 mixture of 0.1 M EDC (1-ethyl-3-(3-dimethylaminopropyl) carbodiimide hydrochloride) and 0.1 M NHS (N-hydroxysuccinimide) at a flow rate of 5 μl/min. Immobilization of CKAP4 proteins (on Fc2) was performed in 10 mM sodium acetate buffer, at either pH 4.5, 5.0, or 5.5 based on preliminary pH scouting runs, for optimal binding. Unreacted NHS groups were quenched with a 7 min injection of 1 M ethanolamine pH 8.5. The Fc1 channel was treated similarly but without CKAP4 and served as a reference. Upon stabilization of the baseline signal, multi-cycle kinetics assays were performed with injections of as-APF as analyte at various concentrations (2.5–40 μM) in running buffer at 30 μl/min for 2 min, immediately followed by a 3 min dissociation phase. […] The data were analyzed using Biacore Evaluation software V2.0. […]

[7] = target: T1, CKAP4_127–360 (Homo sapiens, UniProt Q07065); test: SPR detection of as-APF in spiked urine, CKAP4_127–360 biosensor; assay type: binding; conditions: immobilized CKAP4_127–360
T1 construct: amino acids 106–602, 127–360, 361–524, and 525–602 regions were generated by PCR and subcloned into the pET-15b bacterial expression vector; His-tag; made in house; host or cells: E. coli BL21(DE3)pLysS
T1 sequence (Q07065 127-360): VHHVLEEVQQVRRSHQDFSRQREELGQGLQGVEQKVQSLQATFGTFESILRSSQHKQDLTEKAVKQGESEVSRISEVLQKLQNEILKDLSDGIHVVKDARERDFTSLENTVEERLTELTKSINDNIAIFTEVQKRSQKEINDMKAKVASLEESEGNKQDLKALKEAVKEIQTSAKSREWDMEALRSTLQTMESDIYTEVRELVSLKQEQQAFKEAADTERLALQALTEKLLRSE
Experimental: For experiments using spiked urine, CKAP4_127–360 was immobilized on the Fc2 channel of a CM5 chip by amine-coupling, as the ligand. The Fc1 channel was similarly treated but without CKAP4, to serve as reference. A control urine sample from a healthy donor was mixed 1:1 with as-APF stock (200 μM) solution. Various dilutions of this mixture in SPR running buffer were prepared to yield desired as-APF final concentrations, and then injected over the sensor chip surface. Corresponding dilutions of unspiked control urine were run under identical conditions to account for background interference from urinary constituents. To ensure identical running conditions, all dilutions were adjusted to 1X SPR running buffer from a 10X stock. Sensorgrams were corrected for background interference from urinary constituents by subtracting the RU traces resulting from unspiked urine injections from the RU traces resulting from the corresponding urine dilutions with spiked as-APF, and subsequently replotted after subtracting the RU trace from the reference (Fc1) channel.
In order to determine whether this SPR-based assay employing CKAP4 as a biosensor could be used to detect APF in urine, we used urine from healthy donors spiked with as-APF as a mimetic for IC patient urine. CKAP4_127–360 was employed as the biosensing ligand, since it bound as-APF with the highest affinity. […]

Neu5Acα2 − 3Galβ1 − 3GalNAcα-O-TVPAAVVVA [APF]
effect on CKAP4 localization [1]: internalization, nuclear translocation
IC50 [2]: ~1 nM
IC50 [3]: ~1 nM
IC50 [4]: ~1 nM
relative antiproliferative effect of as-APF and APF ([5]; ref [2]): more or less equipotent
IC50 ([5]; ref [3], read-out: IC50, inhibition of proliferation): ~1 nM
binding to CKAP4 (in words) [6]: bound to CKAP4 with high specificity compared to control APF peptide
detection in normal urine [7]: in a dose-dependent manner
